Assay results published in the NIST ThermoML archive (doi:10.1016/j.jct.2008.07.013).

What was measured:
[1] = Liquid, Alternating current cell with electrodes
[2] = molar heat capacity at constant pressure; details: 101.33 kPa, Liquid, Small sample (50 mg) DSC

CCn1cc[n+](C)c1.O=S(=O)([O-])C(F)(F)F [1-ethyl-3-methylimidazolium trifluoromethanesulfonate]
Details	electrical conductivity, [1] [S/m]	molar heat capacity at constant pressure, [2] [J/K/mol]
293.2 K	0.834	–
298.2 K	0.979	–
303.2 K	1.16	379.42
308.2 K	1.34	381.5
313.2 K	1.52	383.33
318.2 K	1.74	385.41
323.2 K	1.94	387.49
328.2 K	2.17	389.57
333.2 K	2.42	391.65
338.2 K	–	393.74
343.2 K	2.94	395.82
348.2 K	–	397.9
353.2 K	3.51	399.72
358.2 K	–	401.8

CCn1cc[n+](C)c1.N#CN=C=[N-] [1-ethyl-3-methylimidazolium dicyanamide]
Details	electrical conductivity, [1] [S/m]	molar heat capacity at constant pressure, [2] [J/K/mol]
293.2 K	1.89	–
298.2 K	2.2	–
303.2 K	2.55	328.01
308.2 K	2.9	329.96
313.2 K	3.29	332.97
318.2 K	3.68	335.1
323.2 K	4.1	338.64
328.2 K	4.54	340.77
333.2 K	5.02	342.72
338.2 K	–	344.49
343.2 K	5.93	346.44
348.2 K	–	348.92
353.2 K	6.86	351.58
358.2 K	–	354.24

CCn1cc[n+](C)c1.COCCOCCOS(=O)(=O)[O-] [1-ethyl-3-methylimidazolium 2-(2-methoxyethoxy) ethylsulfate]
Details	electrical conductivity, [1] [S/m]	molar heat capacity at constant pressure, [2] [J/K/mol]
293.2 K	0.11	–
298.2 K	0.147	–
303.2 K	0.194	526.38
308.2 K	0.244	527.94
313.2 K	0.307	529.49
318.2 K	0.378	531.04
323.2 K	0.459	532.59
328.2 K	0.545	533.83
333.2 K	0.641	535.7
338.2 K	–	537.25
343.2 K	0.859	538.8
348.2 K	–	540.66
353.2 K	1.12	542.21
358.2 K	–	544.08

CCn1cc[n+](C)c1.F[B-](F)(F)F [1-ethyl-3-methylimidazolium tetrafluoroborate]
Details	electrical conductivity, [1] [S/m]	molar heat capacity at constant pressure, [2] [J/K/mol]
293.2 K	1.38	–
298.2 K	1.57	–
303.2 K	1.789	306.26
308.2 K	2.04	308.44
313.2 K	2.32	310.61
318.2 K	2.59	312.79
323.2 K	2.91	314.38
328.2 K	3.25	315.37
333.2 K	3.59	316.36
338.2 K	–	318.34
343.2 K	4.35	319.33
348.2 K	–	321.3
353.2 K	5.18	322.89
358.2 K	–	323.48

CCOS(=O)(=O)[O-].CCn1cc[n+](C)c1 [1-ethyl-3-methylimidazolium ethyl sulfate]
Details	electrical conductivity, [1] [S/m]	molar heat capacity at constant pressure, [2] [J/K/mol]
293.2 K	0.31	–
298.2 K	0.398	–
303.2 K	0.493	429.81
308.2 K	0.603	431.7
313.2 K	0.722	435.01
318.2 K	0.852	437.14
323.2 K	1	441.39
328.2 K	1.17	444.46
333.2 K	1.34	447.3
338.2 K	–	450.13
343.2 K	1.74	452.97
348.2 K	–	456.51
353.2 K	2.15	461
358.2 K	–	463.6
